#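 96-well plates; 48 h exposure; 5 concentrations. Endpoints by linear interpolation between flanking doses. Not reached: highest tested concentration assigned. Abbreviation: GI50, concentration required for 50% inhibition of growth. TGI is the concentration that stops growth completely.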
# Tests used:
# Assay in all cases: DTP human tumour cell line panel, 48 h
# MDA-N = test system: MDA-N
# SN12C renal = test system: SN12C renal
# MCF7 breast = test system: MCF7 breast
# T-47D breast = test system: T-47D breast
# SR leukemia = test system: SR leukemia
# SK-MEL-5 melanoma = test system: SK-MEL-5 melanoma
# NCI/ADR-RES ovarian = test system: NCI/ADR-RES ovarian
# SF-268 CNS = test system: SF-268 CNS
# A549 NSCLC = test system: A549 NSCLC
# SW-620 colon = test system: SW-620 colon
# OVCAR-5 ovarian = test system: OVCAR-5 ovarian
# NCI-H460 lung = test system: NCI-H460 lung
# PC-3 prostate = test system: PC-3 prostate
# KM12 colon = test system: KM12 colon
# HS 578T breast = test system: HS 578T breast
# TK-10 renal = test system: TK-10 renal
# NCI-H522 lung = test system: NCI-H522 lung
# HL-60(TB) leukemia = test system: HL-60(TB) leukemia
# K-562 leukemia = test system: K-562 leukemia
# SNB-75 CNS = test system: SNB-75 CNS
# SK-MEL-28 melanoma = test system: SK-MEL-28 melanoma
# CCRF-CEM leukemia = test system: CCRF-CEM leukemia
# RPMI-8226 leukemia = test system: RPMI-8226 leukemia
# 786-0 renal = test system: 786-0 renal
# MDA-MB-435 = test system: MDA-MB-435
# ACHN renal = test system: ACHN renal
# M14 melanoma = test system: M14 melanoma
# SNB-19 CNS = test system: SNB-19 CNS
# COLO 205 colon = test system: COLO 205 colon
# OVCAR-8 ovarian = test system: OVCAR-8 ovarian
# HOP-62 NSCLC = test system: HOP-62 NSCLC
# HCT-116 colon = test system: HCT-116 colon
# HCC-2998 colon = test system: HCC-2998 colon
# MDA-MB-231 breast = test system: MDA-MB-231 breast
# UACC-257 melanoma = test system: UACC-257 melanoma
# SF-539 CNS = test system: SF-539 CNS
# IGROV1 ovarian = test system: IGROV1 ovarian
# HCT-15 colon = test system: HCT-15 colon
# OVCAR-4 ovarian = test system: OVCAR-4 ovarian
# SK-OV-3 ovarian = test system: SK-OV-3 ovarian
# SF-295 CNS = test system: SF-295 CNS
# MOLT-4 leukemia = test system: MOLT-4 leukemia
# U251 CNS = test system: U251 CNS
# UO-31 renal = test system: UO-31 renal
# EKVX NSCLC = test system: EKVX NSCLC
# BT-549 breast = test system: BT-549 breast
# RXF 393 renal = test system: RXF 393 renal
# HOP-92 NSCLC = test system: HOP-92 NSCLC
# NCI-H23 lung = test system: NCI-H23 lung
# MALME-3M melanoma = test system: MALME-3M melanoma
# CAKI-1 renal = test system: CAKI-1 renal
# NCI-H226 lung = test system: NCI-H226 lung
# HT29 colon = test system: HT29 colon
# DU-145 prostate = test system: DU-145 prostate
# A498 renal = test system: A498 renal
# OVCAR-3 ovarian = test system: OVCAR-3 ovarian
# SK-MEL-2 melanoma = test system: SK-MEL-2 melanoma
# UACC-62 melanoma = test system: UACC-62 melanoma
# LOX IMVI melanoma = test system: LOX IMVI melanoma
smiles,measurement,setting,value
COc1ccc2c3c([nH]c2c1)-c1nc2ccccc2c(=O)n1CC3,TGI,MDA-N,> 25 µM
same,TGI,SN12C renal,> 25 µM
same,TGI,MCF7 breast,> 25 µM
same,TGI,T-47D breast,> 25 µM
same,TGI,SR leukemia,> 25 µM
same,TGI,SK-MEL-5 melanoma,> 25 µM
same,TGI,NCI/ADR-RES ovarian,> 25 µM
same,TGI,SF-268 CNS,> 25 µM
same,GI50,A549 NSCLC,0.754 µM
same,TGI,A549 NSCLC,> 25 µM
same,TGI,SW-620 colon,> 25 µM
same,TGI,OVCAR-5 ovarian,> 25 µM
same,GI50,NCI-H460 lung,1.38 µM
same,TGI,NCI-H460 lung,> 25 µM
same,TGI,PC-3 prostate,> 25 µM
same,TGI,KM12 colon,> 25 µM
same,GI50,HS 578T breast,1.59 µM
same,TGI,HS 578T breast,10.6 µM
same,TGI,TK-10 renal,> 25 µM
same,TGI,NCI-H522 lung,> 25 µM
same,TGI,HL-60(TB) leukemia,> 25 µM
same,TGI,K-562 leukemia,> 25 µM
same,TGI,SNB-75 CNS,> 25 µM
same,TGI,SK-MEL-28 melanoma,> 25 µM
same,GI50,CCRF-CEM leukemia,> 25 µM
same,TGI,CCRF-CEM leukemia,> 25 µM
same,TGI,RPMI-8226 leukemia,> 25 µM
same,TGI,786-0 renal,> 25 µM
same,TGI,MDA-MB-435,> 25 µM
same,TGI,ACHN renal,> 25 µM
same,TGI,M14 melanoma,> 25 µM
same,TGI,SNB-19 CNS,> 25 µM
same,TGI,COLO 205 colon,> 25 µM
same,TGI,OVCAR-8 ovarian,> 25 µM
same,TGI,HOP-62 NSCLC,> 25 µM
same,TGI,HCT-116 colon,> 25 µM
same,TGI,HCC-2998 colon,> 25 µM
same,TGI,MDA-MB-231 breast,> 25 µM
same,TGI,UACC-257 melanoma,> 25 µM
same,TGI,SF-539 CNS,> 25 µM
same,TGI,IGROV1 ovarian,> 25 µM
same,TGI,HCT-15 colon,> 25 µM
same,GI50,OVCAR-4 ovarian,> 25 µM
same,TGI,OVCAR-4 ovarian,> 25 µM
same,TGI,SK-OV-3 ovarian,> 25 µM
same,TGI,SF-295 CNS,> 25 µM
same,TGI,MOLT-4 leukemia,> 25 µM
same,TGI,U251 CNS,> 25 µM
same,TGI,UO-31 renal,> 25 µM
same,TGI,EKVX NSCLC,> 25 µM
COCCN(C(=O)c1ccccc1)C1CCC(=O)c2[nH]c3ccccc3c21 (stereo unspecified),TGI,BT-549 breast,8.22 µM
same,TGI,SN12C renal,21.1 µM
same,TGI,MCF7 breast,19.2 µM
same,TGI,T-47D breast,34.4 µM
same,TGI,RXF 393 renal,15.2 µM
same,TGI,SR leukemia,> 24.8 µM
same,TGI,SK-MEL-5 melanoma,20.2 µM
same,TGI,HOP-92 NSCLC,25 µM
same,TGI,NCI-H23 lung,36.9 µM
same,TGI,NCI/ADR-RES ovarian,53.6 µM
same,TGI,MALME-3M melanoma,17.7 µM
same,TGI,SF-268 CNS,28.4 µM
same,TGI,A549 NSCLC,31.2 µM
same,TGI,SW-620 colon,23.3 µM
same,TGI,CAKI-1 renal,10.9 µM
same,TGI,OVCAR-5 ovarian,30.6 µM
same,TGI,NCI-H460 lung,34.9 µM
same,TGI,PC-3 prostate,12.8 µM
same,TGI,KM12 colon,21.9 µM
same,TGI,NCI-H226 lung,20.6 µM
same,TGI,HS 578T breast,> 75.5 µM
same,TGI,TK-10 renal,35.5 µM
same,TGI,HT29 colon,24.3 µM
same,TGI,NCI-H522 lung,6.93 µM
same,TGI,HL-60(TB) leukemia,58.8 µM
same,TGI,K-562 leukemia,18.3 µM
same,TGI,SNB-75 CNS,16.5 µM
same,TGI,SK-MEL-28 melanoma,16 µM
same,TGI,CCRF-CEM leukemia,26.8 µM
same,TGI,RPMI-8226 leukemia,58.6 µM
same,TGI,786-0 renal,11.9 µM
same,TGI,DU-145 prostate,27.9 µM
same,TGI,MDA-MB-435,17.5 µM
same,TGI,A498 renal,33.4 µM
same,TGI,ACHN renal,30.4 µM
same,TGI,OVCAR-3 ovarian,25.3 µM
same,TGI,M14 melanoma,20.4 µM
same,TGI,SK-MEL-2 melanoma,17.8 µM
same,TGI,SNB-19 CNS,24.3 µM
same,TGI,COLO 205 colon,31.5 µM
same,TGI,OVCAR-8 ovarian,21.3 µM
same,TGI,HOP-62 NSCLC,11.5 µM
same,TGI,HCT-116 colon,26.5 µM
same,TGI,HCC-2998 colon,31.8 µM
same,TGI,MDA-MB-231 breast,15.9 µM
same,TGI,UACC-257 melanoma,> 66.7 µM
same,TGI,UACC-62 melanoma,36.5 µM
same,TGI,SF-539 CNS,24.3 µM
same,TGI,IGROV1 ovarian,13.6 µM
same,TGI,HCT-15 colon,31.9 µM
same,TGI,OVCAR-4 ovarian,22.2 µM
same,TGI,LOX IMVI melanoma,> 39.4 µM
same,TGI,SK-OV-3 ovarian,29 µM
same,TGI,SF-295 CNS,> 56.8 µM
same,TGI,MOLT-4 leukemia,26.9 µM
same,TGI,U251 CNS,3.99 µM
same,TGI,UO-31 renal,25.2 µM
same,TGI,EKVX NSCLC,25.7 µM
O=C1c2c(O)cccc2Cc2cccc(O)c21,TGI,MDA-N,10.2 µM
same,TGI,MCF7 breast,0.664 µM
same,TGI,RXF 393 renal,1.33 µM
same,TGI,SR leukemia,1.74 µM
same,TGI,SK-MEL-5 melanoma,0.33 µM
same,TGI,NCI-H23 lung,12.8 µM
same,TGI,SF-268 CNS,3.25 µM
same,TGI,A549 NSCLC,1.07 µM
same,TGI,CAKI-1 renal,1.2 µM
same,TGI,NCI-H460 lung,1.31 µM
same,TGI,KM12 colon,1.32 µM
same,TGI,NCI-H226 lung,1.27 µM
same,TGI,HS 578T breast,1.09 µM
same,TGI,TK-10 renal,5.35 µM
same,TGI,HT29 colon,1.55 µM
same,TGI,HL-60(TB) leukemia,0.672 µM
same,TGI,SK-MEL-28 melanoma,3.75 µM
same,TGI,RPMI-8226 leukemia,1.03 µM
same,TGI,786-0 renal,1.76 µM
same,TGI,DU-145 prostate,0.942 µM
same,TGI,MDA-MB-435,11.2 µM
same,TGI,A498 renal,4.81 µM
same,TGI,ACHN renal,1.1 µM
same,TGI,OVCAR-3 ovarian,1.97 µM
same,TGI,M14 melanoma,1.97 µM
same,TGI,SNB-19 CNS,5.39 µM
same,TGI,OVCAR-8 ovarian,1.04 µM
same,TGI,HOP-62 NSCLC,1.32 µM
same,TGI,UACC-257 melanoma,0.653 µM
same,TGI,UACC-62 melanoma,3.07 µM
same,TGI,SF-539 CNS,0.923 µM
same,TGI,IGROV1 ovarian,1.56 µM
same,TGI,OVCAR-4 ovarian,1.8 µM
same,TGI,SK-OV-3 ovarian,1.21 µM
same,TGI,SF-295 CNS,0.782 µM
same,TGI,U251 CNS,1.47 µM
same,TGI,UO-31 renal,1.15 µM
same,TGI,EKVX NSCLC,0.572 µM
